# Laboratory results: paper PMC6362118, “Pharmacophore-guided discovery of CDC25 inhibitors causing cell cycle arrest and tumor regression” (Scientific Reports, 2019)
# Legend:
# HeLa cells [1] = assay: Cell viability assay on HeLa cells; assay type: cell-based; settings: 48h treatment
# Protocol: (§1) 75 Cell culture - Wild-type HeLa and Kyoto HeLa cells stably expressing mCherry-H2B
# (§2) 76 were maintained in DMEM+L-Glutamine (Gibco, Life Technologies, USA)
# (§3) 77 supplemented with 5% fetal calf serum (FCS) (Gibco) and penicillin-streptomycin (100
# 78 U/ml - 100 µg/ml) (Gibco). […]
# 87 Cell viability assays - Compounds viability upon 48h treatment with the compounds was
# 88 assessed as described 4. Data were plotted with Prism 7® and analyzed by non-linear
# 89 regression. Comparison of single curve fitting to all data set within an experiment was
# 90 performed with the extra sum-of-squares F-test to determine P values. […]
# [2] = test system: U2OS Tet-OFF cells expressing HA-CDC25A; assay: Cell viability of U2OS Tet-OFF cells overexpressing HA-CDC25A; assay type: cell-based; settings: grown in the absence of tetracycline (HA-CDC25A induced)
# Protocol: (§4) 65 Enzymatic assays - CDC25A, CDC25B and CDC25C were appropriately diluted in 10
# (§5) 66 mM Tris-HCl pH 8.0, 50 mM NaCl and assayed in 20 mM Tris-HCl pH 8.0, 75 mM
# (§6) 67 NaCl, 0.5 mM EGTA, 1 mM DTT, 0.1 mg/ml BSA and defined concentrations of
# (§7) 68 compounds. Reactions were started by addition of the substrate OMFP (0.1 mM). Assays
# (§8) 69 were carried out at room temperature in duplicate or triplicate using transparent-bottom,
# (§9) 70 V-shaped 96 well plates and read at defined intervals on a Molecular Devices
# (§10) 71 SpectraMax microplate reader (ex: 490 nm / em: 525 nm). IC50 and kinetic parameters
# (§11) 72 calculated from Lineweaver-Burk double-reciprocal plots of the data were obtained using
# 73 GraphPad Prism software.
# as §1, §2, §3
# 78 U/ml - 100 µg/ml) (Gibco). A549 and Colo741 were grown and maintained like HeLa
# 79 cells but with 10% FCS. HCT116 were maintained in McCoy’s medium supplemented
# 80 with 10% FCS and penicillin-streptomycin. U2OS-Tet-OFF cells expressing HA-CDC25
# 81 were grown and maintained in DMEM+L-Glutamine, 10% Tet-free FCS and penicillin- […]
# 88 assessed as described 4. Data were plotted with Prism 7® and analyzed by non-linear […]
# HeLa cells [3] = assay: Time-lapse microscopy of mitosis in synchronized HeLa cells; assay type: cell-based
# Protocol: Cells were grown in 35 mm CellView™ cell culture dishes with glass bottom (# 627870, Greiner-BioOne) at a density of 2.5 × 10^5 cells/ml in a humidified cell incubator maintained at 37 °C and 5% CO2. Cell were viewed by phase contrast microscopy with a 10x objective using an Olympus IX 81 motorized inverted microscope (Olympus, Hamburg, Germany) equipped with external temperature control chamber and CO2 bottle to maintain cells at 37 °C with 5% CO2. Transition through mitosis was documented by acquisition of four frames per hour over a period of 14 h using a CCD camera (Orca AG, Hamamatsu) and cellR® software (Olympus). HeLa-Kyoto cells (mCherry-H2B/EGFP-α-tubulin) were visualized by fluorescence microscopy with an Olympus IX 81 microscope using a 10x objective and selecting Ex. = 492 ± 18 nm/Em. = 535 ± 50 nm for the green channel and Ex. = 572 ± 23 nm/Em. = 645 ± 75 nm for the red channel.
# CDC25A = biological target: T1, CDC25A (Homo sapiens, UniProt P30304); assay: Enzymatic assay (OMFP substrate) on recombinant CDC25A; assay type: biochemical
# T1 construct: GST (pGEX vector) (N); made in house; host or cells: E. coli BL21
# T1 sequence (P30304 1-524): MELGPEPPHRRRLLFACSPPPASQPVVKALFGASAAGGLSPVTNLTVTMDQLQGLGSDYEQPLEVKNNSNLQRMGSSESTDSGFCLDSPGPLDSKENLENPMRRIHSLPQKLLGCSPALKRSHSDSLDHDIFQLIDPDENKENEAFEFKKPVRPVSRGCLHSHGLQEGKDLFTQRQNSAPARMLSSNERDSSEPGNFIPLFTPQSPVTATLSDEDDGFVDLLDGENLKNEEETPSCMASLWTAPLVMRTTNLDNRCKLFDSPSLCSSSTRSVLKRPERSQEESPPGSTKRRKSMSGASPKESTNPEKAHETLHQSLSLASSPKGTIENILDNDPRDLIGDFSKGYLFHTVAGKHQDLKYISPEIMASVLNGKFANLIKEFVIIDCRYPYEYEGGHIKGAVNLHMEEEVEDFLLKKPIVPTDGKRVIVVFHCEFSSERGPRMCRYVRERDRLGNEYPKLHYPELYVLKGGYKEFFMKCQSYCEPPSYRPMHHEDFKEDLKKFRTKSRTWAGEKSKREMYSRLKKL
# Protocol: 57 UPD compounds were dissolved in DMSO at 10 mM stock concentration and stored in
# 60 Expression and purification of CDC25 phosphatases - CDC25A (kind gift of I.
# 61 Hoffmann, Heidelberg, Germany), CDC25B and CDC25C (kind gift of B. Gabrielli,
# 62 Queensland, Australia) in pGEX were expressed in E. coli BL21 cells and purified on 1
# 63 ml Glutathione Sepharose 4 Fast Flow columns as described 1.
# as §4, §5, §6, §7, §8, §9, §10, §11
# 73 GraphPad Prism software. […]
# HeLa cells [4] = assay: Flow cytometric analysis of cell cycle progression (DNA content) in HeLa cells; assay type: cell-based
# Protocol: Reactions were started by addition of the substrate OMFP (0.1 mM). Assays 69 were carried out at room temperature in duplicate or triplicate using transparent-bottom, 70 V-shaped 96 well plates and read at defined intervals on a Molecular Devices 71 SpectraMax microplate reader (ex: 490 nm / em: 525 nm). IC50 and kinetic parameters 72 calculated from Lineweaver-Burk double-reciprocal plots of the data were obtained using 73 GraphPad Prism software. 74 75 Cell culture - Wild-type HeLa and Kyoto HeLa cells stably expressing mCherry-H2B 76 were maintained in DMEM+L-Glutamine (Gibco, Life Technologies, USA) 77 supplemented with 5% fetal calf serum (FCS) (Gibco) and penicillin-streptomycin (100 […] A549 and Colo741 were grown and maintained like HeLa 79 cells but with 10% FCS. HCT116 were maintained in McCoy's medium supplemented 80 with 10% FCS and penicillin-streptomycin. U2OS-Tet-OFF cells expressing HA-CDC25 81 were grown and maintained in DMEM+L-Glutamine, 10% Tet-free FCS and penicillin- 82 streptomycin in the presence or the absence of 4 μg/ml tetracycline (Sigma, T7660). 83 84 Cell synchronization - Cell synchronization was performed by double thymidine block- 85 release protocol 2 or nocodazole treatment 3 and verified by flow cytometry. 86 87 Cell viability assays - Compounds viability upon 48h treatment with the compounds was 88 assessed as described 4. Data were plotted with Prism 7® and analyzed by non-linear 89 regression. Comparison of single curve fitting to all data set within an experiment was 90 performed with the extra sum-of-squares F-test to determine P values. 91 92 Western blotting - Cell lysis and immunoblot analysis were performed as previously 93 described 5. […] Cells were washed with PBS, resuspended […] To 100 quantify phosphorylation of CDK1 at Tyr15 and H2AX at S139, cells were harvested and 101 examined as described 6. Samples were measured on an AttuneTM NxT Cytometer 102 (ThermoFisher Scientific, Carlsbad, CA, USA) and data were analyzed with FlowJo® 103 software v10 (FlowJo, LLC, Ashland, OR, USA). 104 105 Real Time qRT-PCR - Organoids were lysed in Tri-Reagent (Sigma) as previously 106 described 7 and total RNA was isolated as described by manufacturer's instructions. For […] 108 High Fidelity cDNA Synthesis kit (Roche). Real-time quantitative PCR reactions were 109 performed in three independent biological replicates, each with technical triplicate, using 110 the Applied Biosystems SYBR Green Kit and monitored by the ABI Prism 7900HT 111 system (Applied Biosystem). The following primers were used: 112 Lgr5: Forward [NT] and Reverse 5'- […] 114 Lysozyme: Forward [NT] and Reverse 5'- 115 [NT]3' 116 Cryptdin: Forward [NT] and Reverse 5'- 117 [NT]-binding protein (TBP): Forward [NT] and 119 Reverse [NT] 120 […] 122 amplification curves and the melting temperature analysis of the final amplification […] 4
# [5] = parameters: method as in PMID 17970046; settings: due to rapid metabolism; cited from earlier work
SMILES,IC50 (HeLa cells [1]; Homo sapiens) [µM],sensitivity of CDC25A overexpressing cells (viability) [2],"execution of mitosis (time-lapse) (HeLa cells [3]; HeLa, 10 μM added 5 h upon release from 2x thymidine block, monitored 14 h)","execution of mitosis at low dose (time-lapse) (HeLa cells [3]; synchronized HeLa Kyoto cells (mCherry-H2B, GFP-α-tubulin), 5 μM)","remaining activity at 20 µM (CDC25A; compound 20 µM, relative to DMSO control, read-out: % remaining activity ± SD (Table S2, second round of selection)) [%]","effect on cell cycle distribution (DNA content) (HeLa cells [4]; asynchronous HeLa cells, 10 μM, 15 h)","effect on the G2/M transition (HeLa cells [4]; double-thymidine synchronized HeLa, 10 μM added 5 h upon release, analysed 12 h post-release)",IC50 (HeLa cells [1]) [µM],antitumor activity in mice [5],"mode of action (reversibility) (CDC25A; pre-incubation at ~3x IC50 (5 μM UPDs, 2 µM NSC663284), 10-fold dilution)"
"Cc1c(O)ccc(C2=CC(=O)c3cccc(O)c3C2=O)c1O [UPD-787, 8-hydroxy-2-(2,4-dihydroxy-3-methylphenyl) naphthalene-1,4-dione]",0.9,remained sensitive,could not complete mitotic transition and died before reaching G1,"failed attempt to round up and execute mitosis, which was followed by membrane blebbing and death",0.1 ± 0.3,accumulation of cells at G2/M,accretion of the G2/M peak,–,–,–
"O=C1C(Cl)=C(NCCN2CCOCC2)C(=O)c2ncccc21 [NSC-663284, reference compound]",–,–,–,–,–,–,–,2.57,minimal antitumor activity,irreversible
